Assay results: patent US20220275391A1, “METHODS OF USING ALS INHIBITOR HERBICIDES FOR CONTROL OF UNWANTED VEGETATION IN ALS INHIBITOR HERBICIDE TOLERANT BETA VULGARIS PLANTS” (priority 2010, published 2022)

What was measured:
[1] = system: SB574TL based sugar beet; test: Field trial, phytotoxicity scoring on homozygous SB574TL mutant sugar beet; assay type: in vivo, Beta vulgaris; conditions: BBCH 14
From the text: Based on SB574TL, F4—F6 seeds conferring the mutant allele of the endogenous ALS gene in the homozygous state were applied for further testing.

[2] = system: KLARINA; test: Field trial, phytotoxicity scoring on ALS inhibitor sensitive reference variety KLARINA; conditions: BBCH 14
From the text: The water quantity applied in the various applications equaled 200 l/ha. At 8, 14, 16, 17, 28, and 31 days (as indicated in the various Tables) after application (DAA) of the respective ALS inhibitor herbicide(s), the damages (phytotoxicity/phyto) on the different sugar beet plants were scored according to the scale from 0% to 100%.
In this context, “0%” means “no phytotoxicity/phyto” and “100%” means plants were completely killed.

## COc1nc(C)nc(NC(=O)NS(=O)(=O)c2ccccc2I)n1.[Na] [(A1-41), 2-iodo-N-[(4-methoxy-6-methyl-1,3,5-triazinyl)carbamoyl]benzene-sulfonamide sodium salt]
[1]; 30 g/ha, 8 days
  % phyto: 14%
[1]; 30 g/ha, 14 days
  % phyto: 10%
[1]; 30 g/ha, 28 days
  % phyto: 0%
[2]; 30 g/ha, 8 days
  % phyto: 90%
[2]; 30 g/ha, 14 days
  % phyto: 98%
[2]; 30 g/ha, 28 days
  % phyto: 100%

## COc1cc(OC)nc(NC(=O)NS(=O)(=O)c2ncccc2C2=NOCCO2)n1.[Na+] [(A1-87)]
[1]; 15 g/ha, 8 days
  % phyto: 0%
[1]; 15 g/ha, 14 days
  % phyto: 0%
[1]; 15 g/ha, 28 days
  % phyto: 0%
[1]; 30 gai/ha, 8 DAA
  % phyto: 0%
[1]; 30 gai/ha, 17 DAA
  % phyto: 0%
[1]; 30 gai/ha, 31 DAA
  % phyto: 0%
[2]; 15 g/ha, 8 days
  % phyto: 90%
[2]; 15 g/ha, 14 days
  % phyto: 97%
[2]; 15 g/ha, 28 days
  % phyto: 99%
[2]; 30 gai/ha, 8 DAA
  % phyto: 83%
[2]; 30 gai/ha, 17 DAA
  % phyto: 100%
[2]; 30 gai/ha, 31 DAA
  % phyto: 100%

## COc1cc(OC)nc(Oc2cccc(Oc3nc(OC)cc(OC)n3)c2C(=O)O)n1 [Bispyribac-sodium (C1-1), bispyribac-sodium]
[1]; 50 g/ha, 8 days
  % phyto: 23%
[1]; 50 g/ha, 14 days
  % phyto: 30%
[1]; 50 g/ha, 28 days
  % phyto: 0%
[2]; 50 g/ha, 8 days
  % phyto: 90%
[2]; 50 g/ha, 14 days
  % phyto: 98%
[2]; 50 g/ha, 28 days
  % phyto: 99%

## COCc1cnc(C2=NC(C)(C(C)C)C(=O)N2)c(C(=O)O)c1 (stereo not drawn) [Imazamox (B1-2), imazamox]
[1]; 40 g/ha, 8 days
  % phyto: 0%
[1]; 40 g/ha, 14 days
  % phyto: 0%
[1]; 40 g/ha, 28 days
  % phyto: 0%
[2]; 40 g/ha, 8 days
  % phyto: 90%
[2]; 40 g/ha, 14 days
  % phyto: 97%
[2]; 40 g/ha, 28 days
  % phyto: 99%

## COC(=O)c1ccc(CNS(C)(=O)=O)cc1S(=O)(=O)NC(=O)Nc1nc(OC)cc(OC)n1 [Mesosulfuron-methyl (A1-17), mesosulfuron-methyl]
[2]; 60 g/ha, 8 days
  % phyto: 90%
[2]; 60 g/ha, 14 days
  % phyto: 97%
[2]; 60 g/ha, 28 days
  % phyto: 99%

## COc1cc(OC)n2nc(S(=O)(=O)Nc3c(Cl)ccc(C)c3Cl)nc2n1 [Metosulam (A3-5), metosulam]
[2]; 30 g/ha, 8 days
  % phyto: 90%
[2]; 30 g/ha, 14 days
  % phyto: 97%
[2]; 30 g/ha, 28 days
  % phyto: 93%

## COC(=O)c1ccccc1S(=O)(=O)NC(=O)Nc1nc(C)nc(OC)n1 [Metsulfuron-methyl (A1-28), metsulfuron-methyl]
[2]; 8 g/ha, 8 days
  % phyto: 88%
[2]; 8 g/ha, 14 days
  % phyto: 98%
[2]; 8 g/ha, 28 days
  % phyto: 99%

## CCS(=O)(=O)c1cccnc1S(=O)(=O)NC(=O)Nc1nc(OC)cc(OC)n1 [Rimsulfuron (A1-26), rimsulfuron]
[2]; 12.5 g/ha, 8 days
  % phyto: 81%
[2]; 12.5 g/ha, 14 days
  % phyto: 85%
[2]; 12.5 g/ha, 28 days
  % phyto: 76%

## COC(=O)c1csc(C)c1S(=O)(=O)NC(=O)n1nc(OC)n(C)c1=O [Thiencarbazone-methyl (A2-3), thiencarbazone-methyl]
[2]; 15 g/ha, 8 days
  % phyto: 90%
[2]; 15 g/ha, 14 days
  % phyto: 97%
[2]; 15 g/ha, 28 days
  % phyto: 100%
[2]; 30 g/ha, 8 days
  % phyto: 90%
[2]; 30 g/ha, 14 days
  % phyto: 97%
[2]; 30 g/ha, 28 days
  % phyto: 100%

## COC(=O)c1sccc1S(=O)(=O)NC(=O)Nc1nc(C)nc(OC)n1 [Thifensulfuron-methyl (A1-29), thifensulfuron-methyl]
[2]; 7.5 g/ha, 8 days
  % phyto: 90%
[2]; 7.5 g/ha, 14 days
  % phyto: 98%
[2]; 7.5 g/ha, 28 days
  % phyto: 100%

## COC(=O)c1ccccc1S(=O)(=O)NC(=O)N(C)c1nc(C)nc(OC)n1 [Tribenuron-methyl (A1-31), tribenuron-methyl]
[2]; 30 g/ha, 8 days
  % phyto: 91%
[2]; 30 g/ha, 14 days
  % phyto: 98%
[2]; 30 g/ha, 28 days
  % phyto: 100%
